Structures can show the parent of a compound that is named as a salt. Where two headings read alike, the source gives them in different places.
Columns and labels:
Assay type in all cases: cell-based
mGlu4 = mGlu4 (Homo sapiens, UniProt Q14833); test: Activities on metabotropic glutamate receptor 4 (EC50; readout marked IP or by a symbol); settings: for mGlu8/4 EC50 ratio: ratio of mGlu8 EC50 to mGlu4 EC50, one per pair of values (readout/batch)
From the text: (§1) Activities on Metabotropic Glutamate Receptors 4, 8, 6 and 7.
(§2) Nitrobenzyl PCEP Derivatives

mGlu8 = mGlu8 (Homo sapiens, UniProt O00222); test: Activities on metabotropic glutamate receptor 8 (EC50; readout marked IP or by a symbol)
mGlu8, sequence (O00222 34-908): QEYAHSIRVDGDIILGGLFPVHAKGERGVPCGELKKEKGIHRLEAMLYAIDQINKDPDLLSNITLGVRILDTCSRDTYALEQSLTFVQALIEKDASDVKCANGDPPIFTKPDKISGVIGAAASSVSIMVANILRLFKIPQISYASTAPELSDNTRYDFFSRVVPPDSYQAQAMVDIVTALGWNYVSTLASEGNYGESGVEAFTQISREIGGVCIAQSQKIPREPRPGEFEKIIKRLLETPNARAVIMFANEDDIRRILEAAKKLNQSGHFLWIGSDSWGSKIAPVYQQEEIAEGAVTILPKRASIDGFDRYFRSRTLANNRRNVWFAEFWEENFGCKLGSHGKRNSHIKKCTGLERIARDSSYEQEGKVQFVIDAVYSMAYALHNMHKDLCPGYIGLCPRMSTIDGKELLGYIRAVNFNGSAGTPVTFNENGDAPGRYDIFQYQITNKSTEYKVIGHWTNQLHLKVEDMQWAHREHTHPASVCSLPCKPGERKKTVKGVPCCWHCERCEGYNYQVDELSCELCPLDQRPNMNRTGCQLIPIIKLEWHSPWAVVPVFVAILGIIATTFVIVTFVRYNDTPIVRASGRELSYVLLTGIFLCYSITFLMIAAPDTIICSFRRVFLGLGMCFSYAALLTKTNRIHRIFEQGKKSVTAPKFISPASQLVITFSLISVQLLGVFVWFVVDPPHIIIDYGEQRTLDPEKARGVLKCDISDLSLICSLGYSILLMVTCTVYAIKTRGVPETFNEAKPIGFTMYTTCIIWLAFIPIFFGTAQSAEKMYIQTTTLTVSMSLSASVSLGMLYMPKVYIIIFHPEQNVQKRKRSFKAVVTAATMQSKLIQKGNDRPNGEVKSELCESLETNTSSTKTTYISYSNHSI
From the text: as §1, §2

mGlu6 = mGlu6 (Homo sapiens, UniProt O15303); test: Activities on metabotropic glutamate receptor 6 (EC50; readout marked IP or by a symbol); settings: mean ± spread (n), read-out: mG1u6 EC50 μM (n) (converted)
mGlu6, sequence (O15303 25-877): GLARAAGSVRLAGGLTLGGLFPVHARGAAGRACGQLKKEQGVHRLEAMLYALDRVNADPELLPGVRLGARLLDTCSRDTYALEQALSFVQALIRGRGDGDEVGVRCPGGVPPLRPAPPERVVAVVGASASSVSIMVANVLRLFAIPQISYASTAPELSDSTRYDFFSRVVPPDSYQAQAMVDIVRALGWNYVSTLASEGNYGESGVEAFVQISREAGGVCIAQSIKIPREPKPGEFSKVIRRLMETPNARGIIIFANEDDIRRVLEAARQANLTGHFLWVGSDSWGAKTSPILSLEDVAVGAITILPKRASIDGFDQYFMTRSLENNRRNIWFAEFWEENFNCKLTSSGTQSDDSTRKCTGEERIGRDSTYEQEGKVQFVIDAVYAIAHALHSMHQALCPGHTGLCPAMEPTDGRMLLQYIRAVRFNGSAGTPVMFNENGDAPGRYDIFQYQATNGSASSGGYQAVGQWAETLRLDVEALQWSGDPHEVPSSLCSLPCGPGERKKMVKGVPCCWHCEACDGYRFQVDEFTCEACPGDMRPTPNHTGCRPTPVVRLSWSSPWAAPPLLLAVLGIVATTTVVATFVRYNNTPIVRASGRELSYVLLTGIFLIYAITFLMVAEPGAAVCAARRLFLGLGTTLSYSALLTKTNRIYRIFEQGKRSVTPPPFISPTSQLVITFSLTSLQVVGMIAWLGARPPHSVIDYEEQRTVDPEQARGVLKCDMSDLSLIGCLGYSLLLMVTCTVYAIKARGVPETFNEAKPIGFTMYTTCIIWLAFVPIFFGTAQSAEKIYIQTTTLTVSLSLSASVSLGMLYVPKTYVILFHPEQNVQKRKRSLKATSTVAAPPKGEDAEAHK
From the text: as §1, §2

mGlu7 = mGlu7 (Homo sapiens, UniProt Q14831); test: Activities on metabotropic glutamate receptor 7 (EC50; readout marked IP or by a symbol); settings: mean ± spread (n), read-out: mG1u7 EC50 μM (n) (converted)
mGlu7, sequence (Q14831 35-915): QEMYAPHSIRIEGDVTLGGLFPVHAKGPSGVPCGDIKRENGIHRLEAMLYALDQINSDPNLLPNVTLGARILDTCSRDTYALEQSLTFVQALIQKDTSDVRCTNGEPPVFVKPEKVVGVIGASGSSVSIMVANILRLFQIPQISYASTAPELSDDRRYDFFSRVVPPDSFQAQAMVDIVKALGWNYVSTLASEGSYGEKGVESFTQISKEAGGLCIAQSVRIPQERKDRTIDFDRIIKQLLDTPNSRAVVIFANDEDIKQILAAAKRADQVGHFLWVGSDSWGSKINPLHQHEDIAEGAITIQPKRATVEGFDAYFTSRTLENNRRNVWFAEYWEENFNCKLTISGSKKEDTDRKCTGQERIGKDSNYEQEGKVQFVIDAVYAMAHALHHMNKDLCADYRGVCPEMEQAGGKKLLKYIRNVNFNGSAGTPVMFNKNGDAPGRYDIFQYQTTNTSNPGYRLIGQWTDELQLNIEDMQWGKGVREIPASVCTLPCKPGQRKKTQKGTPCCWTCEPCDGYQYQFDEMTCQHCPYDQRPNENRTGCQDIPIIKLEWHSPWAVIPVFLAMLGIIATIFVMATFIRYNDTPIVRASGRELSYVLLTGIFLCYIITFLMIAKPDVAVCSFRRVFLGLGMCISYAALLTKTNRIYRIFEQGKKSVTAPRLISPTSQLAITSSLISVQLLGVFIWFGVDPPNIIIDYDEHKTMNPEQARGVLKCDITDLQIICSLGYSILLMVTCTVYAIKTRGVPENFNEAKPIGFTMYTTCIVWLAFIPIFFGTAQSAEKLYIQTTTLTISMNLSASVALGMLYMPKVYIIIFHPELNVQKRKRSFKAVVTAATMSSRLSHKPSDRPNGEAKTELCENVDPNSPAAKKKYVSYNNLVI
From the text: as §1, §2

[1] = values marked with an image symbol (second readout, not IP), mean ± spread (n)
[2] = values marked with an image symbol (second readout, not IP)
[3] = values marked IP, mean ± spread (n)

mGlu4, sequence (Q14833 33-912): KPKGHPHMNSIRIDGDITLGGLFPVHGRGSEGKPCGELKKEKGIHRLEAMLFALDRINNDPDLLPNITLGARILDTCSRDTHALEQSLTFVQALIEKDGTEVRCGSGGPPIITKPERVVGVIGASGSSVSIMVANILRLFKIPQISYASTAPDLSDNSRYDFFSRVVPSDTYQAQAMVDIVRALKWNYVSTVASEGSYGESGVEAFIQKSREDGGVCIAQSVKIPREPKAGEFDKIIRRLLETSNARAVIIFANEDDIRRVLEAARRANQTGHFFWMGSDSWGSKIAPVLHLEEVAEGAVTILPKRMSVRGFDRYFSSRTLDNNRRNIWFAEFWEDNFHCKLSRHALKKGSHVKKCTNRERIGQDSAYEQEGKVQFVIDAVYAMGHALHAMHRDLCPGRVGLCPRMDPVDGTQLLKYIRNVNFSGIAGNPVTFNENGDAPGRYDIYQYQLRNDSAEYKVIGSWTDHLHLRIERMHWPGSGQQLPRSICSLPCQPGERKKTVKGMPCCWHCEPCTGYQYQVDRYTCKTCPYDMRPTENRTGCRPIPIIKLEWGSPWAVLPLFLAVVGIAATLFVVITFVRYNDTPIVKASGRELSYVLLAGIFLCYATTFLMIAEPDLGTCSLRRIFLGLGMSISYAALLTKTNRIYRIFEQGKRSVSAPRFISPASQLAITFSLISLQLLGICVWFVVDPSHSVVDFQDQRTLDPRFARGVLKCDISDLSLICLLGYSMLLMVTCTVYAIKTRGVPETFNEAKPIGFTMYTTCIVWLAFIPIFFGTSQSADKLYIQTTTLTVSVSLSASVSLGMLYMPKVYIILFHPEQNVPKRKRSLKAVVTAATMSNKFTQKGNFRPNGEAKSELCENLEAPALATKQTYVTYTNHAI

SMILES	mGlu8/4 EC50 ratio (mGlu4)	EC50 (mGlu4; [1]) [µM]	EC50 (mGlu8; [1]) [µM]	other results
N[C@@H](CCP(=O)(O)C(O)c1cccc(OCC(=O)O)c1)C(=O)O (single isomer, unassigned) [LSP3-3108-II]	2.3	13 ± 2.9	29.3 ± 7.2	–
N[C@@H](CCP(=O)(O)C(O)c1ccc(O)c([N+](=O)[O-])c1)C(=O)O (stereo partly drawn) [LSP1-2109, (3S)-3-[(((3-amino-3-carboxy)propyl) (hydroxy)phosphinyl)-hydroxymethyl]-4-hydroxy-3-nitrobenzene]	–	–	–	EC50 (mGlu6; values marked IP): 6 ± 0.9 µM; EC50 (mGlu6; [2]): 6.3 µM; EC50 (mGlu7; values marked IP): 69 ± 8 µM; EC50 (mGlu7; [2]): 125 µM
N[C@@H](CCP(=O)(O)C(O)c1cccc(OCC(=O)O)c1)C(=O)O (single isomer, unassigned) [LSP3-3108-I]	7.4	4.9 ± 1	36 ± 18	–
COc1cc(C(N)P(=O)(O)CC[C@H](N)C(=O)O)cc([N+](=O)[O-])c1O (stereo partly drawn) [LSP4-1184, (2S)-amino-4-[[amino(4-hydroxy-5-methoxy-3-nitrophenyl)methyl](hydroxy)phosphoryl]butanoic acid]	–	13 ± 3.9	33 ± 12	–
COc1cc(C(O)P(=O)(O)CC[C@H](N)C(=O)O)cc([N+](=O)[O-])c1O (single isomer, unassigned) [LSP3-1101-II, hydrochloride]	5.9	4.7 ± 0.4	27 ± 14	EC50 (mGlu6; [2]): 2.36 ± 0.77 µM; EC50 (mGlu7; [2]): 100 ± 49 µM
Cl.N[C@@H](CCP(=O)(O)C(O)c1ccc(O)c([N+](=O)[O-])c1)C(=O)O (single isomer, unassigned) [LSP3-2074-II]	8.5	–	–	–
COc1ccc(C(O)P(=O)(O)CC[C@H](N)C(=O)O)cc1[N+](=O)[O-] (stereo partly drawn) [LSP1-2101, (3S)-3-[(((3-amino-3-carboxy)propyl) (hydroxy)phosphinyl)-hydroxymethyl]-4-methoxy-3-nitrobenzene]	–	4.2	4.4	EC50 (mGlu4; [3]): 0.5 ± 0.09 µM; EC50 (mGlu8; [3]): 0.85 ± 0.07 µM
NC(c1cccc([N+](=O)[O-])c1)P(=O)(O)CC[C@H](N)C(=O)O (stereo partly drawn) [LSP1-3131, (2S)-amino-4-[[amino(3-nitrophenyl)methyl](hydroxy)phosphinyl]butanoic acid]	4.1	–	–	EC50 (mGlu4; [3]): 0.54 ± 0.14 µM; EC50 (mGlu8; [3]): 2.2 ± 0.9 µM
N[C@@H](CCP(=O)(O)C(O)c1cccc(OCC(=O)O)c1)C(=O)O (stereo partly shown) [LSP3-3099]	9.4	7.6 ± 2	71 ± 25	–
COc1cc(C(O)P(=O)(O)CC[C@H](N)C(=O)O)cc([N+](=O)[O-])c1O (mixture of isomers) [LSP1-2111, (3S)-3-[(((3-ammonium-3-carboxy)propyl)(hydroxy)phosphinyl)-hydroxymethyl]4-hydroxy-5-methoxy-3-nitrobenzene]	–	–	–	EC50 (mGlu4; value printed without readout mark, read-out: mGlu4 EC50 μM (n) (converted)): 1.5 µM; EC50 (mGlu4; [3]): 2.2 ± 0.3 µM; EC50 (mGlu8; value printed without readout mark, read-out: mGlu8 EC50 μM (n) (converted)): 113 µM; EC50 (mGlu8; [3]): 66 ± 12 µM; EC50 (mGlu6; values marked IP): 1.7 ± 0.1 µM; EC50 (mGlu6; [2]): 3.18 µM; EC50 (mGlu7; values marked IP): 53 ± 20 µM; EC50 (mGlu7; [2]): 101 µM
CCOc1cc(C(O)P(=O)(O)CC[C@H](N)C(=O)O)cc([N+](=O)[O-])c1O (single isomer, unassigned) [LSP3-1143-I, hydrochloride]	–	5.1 ± 1.2	33 ± 31	mGlu8/4 EC50 ratio (mGlu4; hydrochloride): 6.5
COc1cc(CP(=O)(O)CC[C@H](N)C(=O)O)cc([N+](=O)[O-])c1O.N [LSP3-2134, (3S)-3-[(((3-ammonium-3-carboxy)propyl)(hydroxy)phosphinyl)-methyl]4-hydroxy-5-methoxy-3-nitrobenzene]	0.85	19.7 ± 10.5	16.6 ± 1.1	–
NC(CCP(=O)(O)C(O)c1cccc([N+](=O)[O-])c1)C(=O)O (single isomer, unassigned) [LSP3-1098-II, hydrochloride]	–	0.9 ± 0.4	1.3 ± 0.5	–
N[C@@H](CCP(=O)(O)C(O)c1cccc([N+](=O)[O-])c1)C(=O)O (mixture of isomers) [LSP1-2093, (3S)-3-[(((3-ammonium-3-carboxy)propyl)(hydroxy)phosphinyl)-hydroxymethyl]3-nitrobenzene]	–	–	–	EC50 (mGlu8; [3]): 1.5 ± 0.5 µM; EC50 (mGlu6; values marked IP): 8.8 ± 0.7 µM; EC50 (mGlu7; values marked IP): > 1000 µM
N[C@@H](CCP(=O)(O)Cc1cccc([N+](=O)[O-])c1)C(=O)O [LSP3-1045, (3S)-3-[(((3-ammonium-3-carboxy)propyl) (hydroxy)phosphinyl)-methyl]3-nitrobenzene]	–	0.42	1	EC50 (mGlu4; [3]): 0.8 ± 0.2 µM; EC50 (mGlu8; [3]): 4.4 ± 2 µM
COc1ccc(C(O)P(=O)(O)CC[C@H](N)C(=O)O)cc1[N+](=O)[O-] (single isomer, unassigned) [LSP2-6146-II, hydrochloride]	1.3	1.7 ± 0.6	2.2 ± 0.6	–
N[C@@H](CCP(=O)(O)C(O)c1ccc(O)c([N+](=O)[O-])c1)C(=O)O (single isomer, unassigned) [LSP3-2074-I, hydrochloride]	–	0.5 ± 0.07	31.5 ± 8.6	mGlu8/4 EC50 ratio (mGlu4; hydrochloride): 63; EC50 (mGlu6; [2]): 3.9 ± 1.7 µM; EC50 (mGlu7; [2]): 62 ± 26 µM
CCOc1cc(C(O)P(=O)(O)CC[C@H](N)C(=O)O)cc([N+](=O)[O-])c1O (single isomer, unassigned) [LSP3-1143-II, hydrochloride]	1.4	6.4 ± 2.4	9.2 ± 2.6	–
NC(CCP(=O)(O)C(O)c1cccc([N+](=O)[O-])c1)C(=O)O (single isomer, unassigned) [LSP3-1098-I, hydrochloride]	–	1 ± 0.4	1.25 ± 0.3	–
COc1cc(C(O)P(=O)(O)CC[C@H](N)C(=O)O)cc([N+](=O)[O-])c1O (single isomer, unassigned) [LSP3-1101-I, hydrochloride]	–	0.74 ± 0.09	23 ± 6	mGlu8/4 EC50 ratio (mGlu4; hydrochloride): 31; EC50 (mGlu6; [2]): 1.11 ± 0.41 µM; EC50 (mGlu7; [2]): 63 ± 35 µM
Cl.N[C@@H](CCP(=O)(O)C(O)c1ccc(O)c([N+](=O)[O-])c1)C(=O)O (single isomer, unassigned) [LSP3-2074-II, hydrochloride]	–	4.5 ± 0.2	39.8 ± 6.5	EC50 (mGlu6; [2]): 68.4 ± 14.5 µM; EC50 (mGlu7; [2]): 295 ± 178 µM
CCOc1cc(C(O)P(=O)(O)CC[C@H](N)C(=O)O)cc([N+](=O)[O-])c1O (mixture of isomers) [LSP3-1145, (3S)-3-[(((3-ammonium-3-carboxy)propyl)(hydroxy)phosphinyl)-hydroxymethyl]4-hydroxy-5-ethoxy-3-nitrobenzene]	3.1	8.5 ± 1.1	27 ± 20	–
COc1ccc(C(O)P(=O)(O)CC[C@H](N)C(=O)O)cc1[N+](=O)[O-] (single isomer, unassigned) [LSP2-6146-I, hydrochloride]	–	2 ± 0.4	2.5 ± 0.8	mGlu8/4 EC50 ratio (mGlu4; hydrochloride): 1.2
